Measured values reported in the supplement of paper PMC10307832.

Columns and labels:
Test in all cases: relative viability (nuclei count vs DMSO), 5 days (fraction); higher = more cells survive
A-427 = system: A-427
Outline: (§1)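 Each reported value is a median over duplicate plates. It expresses relative viability: treated-well nuclei count divided by vehicle-well nuclei count. Lung cancer cell lines in 1536-well plates were dosed by pin tool a day after seeding, alone with one drug or with a fixed anchor-drug dose plus five library-drug doses (not always all listed) in √10 steps, and nuclei were counted after 5 days.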

CAL-12T = system: CAL-12T
Outline: as §1

COR-L 105 = system: COR-L 105
Outline: as §1

COR-L23 = system: COR-L23
Outline: as §1

EPLC-272H = system: EPLC-272H
Outline: as §1

HOP-62 = system: HOP-62
Outline: as §1

LCLC-103H = system: LCLC-103H
Outline: as §1

LXF-289 = system: LXF-289
Outline: as §1

NCI-H1395 = system: NCI-H1395
Outline: as §1

NCI-H1563 = system: NCI-H1563
Outline: as §1

NCI-H1651 = system: NCI-H1651
Outline: as §1

NCI-H1975 = system: NCI-H1975
Outline: as §1

NCI-H1993 = system: NCI-H1993
Outline: as §1

NCI-H2023 = system: NCI-H2023
Outline: as §1

NCI-H2085 = system: NCI-H2085
Outline: as §1

NCI-H2087 = system: NCI-H2087
Outline: as §1

NCI-H2170 = system: NCI-H2170
Outline: as §1

NCI-H2342 = system: NCI-H2342
Outline: as §1

NCI-H3122 = system: NCI-H3122
Outline: as §1

NCI-H596 = system: NCI-H596
Outline: as §1

NCI-H647 = system: NCI-H647
Outline: as §1

NCI-H650 = system: NCI-H650
Outline: as §1

PC-14 = system: PC-14
Outline: as §1

RERF-LC-KJ = system: RERF-LC-KJ
Outline: as §1

SK-MES-1 = system: SK-MES-1
Outline: as §1

Work on `CCCCCCCCCCCC1=C(O)C(=O)C=C(O)C1=O` [Embelin] + Cc1nc(Nc2ncc(C(=O)Nc3c(C)cccc3Cl)s2)cc(N2CCN(CCO)CC2)n1 [Dasatinib] (partner 0.075 µM) yielded a relative viability (A-427; first compound 0.08 µM) of 0.689, a relative viability (A-427; first compound 0.8 µM) of 0.805 and a relative viability (A-427; first compound 2.53 µM) of 0.689. It also gave a relative viability (A-427; first compound 8 µM) of 0.727, a relative viability (CAL-12T; first compound 0.08 µM) of 0.414 and a relative viability (CAL-12T; first compound 0.8 µM) of 0.522. For the same compound, the relative viability (CAL-12T; first compound 2.53 µM) was 0.481, the relative viability (CAL-12T; first compound 8 µM) was 0.539 and the relative viability (COR-L 105; first compound 0.08 µM) was 0.339. The relative viability (COR-L 105; first compound 0.8 µM) was 0.544, the relative viability (COR-L 105; first compound 2.53 µM) was 0.355 and the relative viability (COR-L 105; first compound 8 µM) was 0.33. The relative viability (COR-L23; first compound 0.08 µM) was 0.486, the relative viability (COR-L23; first compound 0.8 µM) was 0.55 and the relative viability (COR-L23; first compound 2.53 µM) was 0.458. For the same compound, the relative viability (COR-L23; first compound 8 µM) was 0.562, the relative viability (EPLC-272H; first compound 0.08 µM) was 0.393 and the relative viability (EPLC-272H; first compound 0.8 µM) was 0.469. It also gave a relative viability (EPLC-272H; first compound 2.53 µM) of 0.442, a relative viability (EPLC-272H; first compound 8 µM) of 0.277 and a relative viability (HOP-62; first compound 0.08 µM) of 0.66. It also gave a relative viability (HOP-62; first compound 0.8 µM) of 0.776, a relative viability (HOP-62; first compound 2.53 µM) of 0.68 and a relative viability (HOP-62; first compound 8 µM) of 0.654. It also gave a relative viability (LCLC-103H; first compound 0.08 µM) of 0.453, a relative viability (LCLC-103H; first compound 0.8 µM) of 0.517 and a relative viability (LCLC-103H; first compound 2.53 µM) of 0.511. For the same compound, the relative viability (LCLC-103H; first compound 8 µM) was 0.405, the relative viability (LXF-289; first compound 0.08 µM) was 0.212 and the relative viability (LXF-289; first compound 0.8 µM) was 0.282. For the same compound, the relative viability (LXF-289; first compound 2.53 µM) was 0.163, the relative viability (LXF-289; first compound 8 µM) was 0.222 and the relative viability (NCI-H1395; first compound 0.08 µM) was 0.393. For the same compound, the relative viability (NCI-H1395; first compound 0.8 µM) was 0.484, the relative viability (NCI-H1395; first compound 2.53 µM) was 0.404 and the relative viability (NCI-H1395; first compound 8 µM) was 0.352. For the same compound, the relative viability (NCI-H1563; first compound 0.08 µM) was 0.475, the relative viability (NCI-H1563; first compound 0.8 µM) was 0.447 and the relative viability (NCI-H1563; first compound 2.53 µM) was 0.405. It also gave a relative viability (NCI-H1563; first compound 8 µM) of 0.387, a relative viability (NCI-H1651; first compound 0.08 µM) of 0.388 and a relative viability (NCI-H1651; first compound 0.8 µM) of 0.508. For the same compound, the relative viability (NCI-H1651; first compound 2.53 µM) was 0.438, the relative viability (NCI-H1651; first compound 8 µM) was 0.335 and the relative viability (NCI-H1975; first compound 0.08 µM) was 0.31. It also gave a relative viability (NCI-H1975; first compound 0.8 µM) of 0.396, a relative viability (NCI-H1975; first compound 2.53 µM) of 0.502 and a relative viability (NCI-H1975; first compound 8 µM) of 0.333. The relative viability (NCI-H1993; first compound 0.08 µM) was 0.641, the relative viability (NCI-H1993; first compound 0.8 µM) was 0.602 and the relative viability (NCI-H1993; first compound 2.53 µM) was 0.535. For the same compound, the relative viability (NCI-H1993; first compound 8 µM) was 0.509, the relative viability (NCI-H2023; first compound 0.08 µM) was 0.565 and the relative viability (NCI-H2023; first compound 0.8 µM) was 0.673. It also gave a relative viability (NCI-H2023; first compound 2.53 µM) of 0.611, a relative viability (NCI-H2023; first compound 8 µM) of 0.556 and a relative viability (NCI-H2085; first compound 0.08 µM) of 0.253. For the same compound, the relative viability (NCI-H2085; first compound 0.8 µM) was 0.246, the relative viability (NCI-H2085; first compound 2.53 µM) was 0.227 and the relative viability (NCI-H2085; first compound 8 µM) was 0.209. The relative viability (NCI-H2087; first compound 0.08 µM) was 0.877, the relative viability (NCI-H2087; first compound 0.8 µM) was 1.19 and the relative viability (NCI-H2087; first compound 2.53 µM) was 1.06. For the same compound, the relative viability (NCI-H2087; first compound 8 µM) was 0.913, the relative viability (NCI-H2170; first compound 0.08 µM) was 0.649 and the relative viability (NCI-H2170; first compound 0.8 µM) was 0.806. The relative viability (NCI-H2170; first compound 2.53 µM) was 0.694, the relative viability (NCI-H2170; first compound 8 µM) was 0.533 and the relative viability (NCI-H2342; first compound 0.08 µM) was 0.288. It also gave a relative viability (NCI-H2342; first compound 0.8 µM) of 0.346, a relative viability (NCI-H2342; first compound 2.53 µM) of 0.326 and a relative viability (NCI-H2342; first compound 8 µM) of 0.342. It also gave a relative viability (NCI-H3122; first compound 0.08 µM) of 0.823, a relative viability (NCI-H3122; first compound 0.8 µM) of 0.922 and a relative viability (NCI-H3122; first compound 2.53 µM) of 0.853. It also gave a relative viability (NCI-H3122; first compound 8 µM) of 0.829, a relative viability (NCI-H596; first compound 0.08 µM) of 0.739 and a relative viability (NCI-H596; first compound 0.8 µM) of 0.739. The relative viability (NCI-H596; first compound 2.53 µM) was 0.708, the relative viability (NCI-H596; first compound 8 µM) was 0.457 and the relative viability (NCI-H647; first compound 0.08 µM) was 0.214. It also gave a relative viability (NCI-H647; first compound 0.8 µM) of 0.242, a relative viability (NCI-H647; first compound 2.53 µM) of 0.123 and a relative viability (NCI-H647; first compound 8 µM) of 0.14. It also gave a relative viability (NCI-H650; first compound 0.08 µM) of 0.443, a relative viability (NCI-H650; first compound 0.8 µM) of 0.485 and a relative viability (NCI-H650; first compound 2.53 µM) of 0.368. It also gave a relative viability (NCI-H650; first compound 8 µM) of 0.383, a relative viability (PC-14; first compound 0.08 µM) of 0.257 and a relative viability (PC-14; first compound 0.8 µM) of 0.396. For the same compound, the relative viability (PC-14; first compound 2.53 µM) was 0.246, the relative viability (PC-14; first compound 8 µM) was 0.315 and the relative viability (RERF-LC-KJ; first compound 0.08 µM) was 0.82. For the same compound, the relative viability (RERF-LC-KJ; first compound 0.8 µM) was 0.983, the relative viability (RERF-LC-KJ; first compound 2.53 µM) was 0.81 and the relative viability (RERF-LC-KJ; first compound 8 µM) was 0.704. The relative viability (SK-MES-1; first compound 0.08 µM) was 0.372, the relative viability (SK-MES-1; first compound 0.8 µM) was 0.466 and the relative viability (SK-MES-1; first compound 2.53 µM) was 0.321. It also gave a relative viability (SK-MES-1; first compound 8 µM) of 0.361.
